Numbers after ± are expanded uncertainties.

Data set [1] in a line: refractive index (Na D-line) (dimensionless). To be noted: 293.15 K; 101.33 kPa; Liquid; Standard Abbe refractometry.
The conditions of data set [2]: 298.15 K; 101.33 kPa; Liquid.

For `CCc1ccccc1` [ethylbenzene], the refractive index (as a rule, a measure of how strongly the sample bends light) in data set [1] was found to be 1.4962 ± 0.0005. Also, in data set [2], the mass density – broadly, mass per unit of volume – is given as 862.44 ± 0.55 kg/m3.
`C=Cc1ccccc1` [styrene]: the refractive index in data set [1] came to 1.546 ± 0.0005. Also, the mass density in data set [2] is on record as 901.51 ± 0.54 kg/m3.
For `c1ccccc1` [benzene], in that order: 1.5009 ± 0.0004 and 873.56 ± 0.35 kg/m3.
For `Cc1ccccc1` [toluene], in that order: 1.4965 ± 0.0006 and 862.14 ± 0.94 kg/m3.
Turning to `C[S+](C)[O-]` [dimethyl sulfoxide], in data set [1], the refractive index came to 1.4785 ± 0.0004. The mass density in data set [2] is recorded as 1095.62 ± 0.32 kg/m3.

Values taken from the NIST ThermoML archive (doi:10.1016/j.jct.2004.07.024).
